Data taken from patent US8138153B2, “Potassium channel modulator peptide” (National Centre for Biological Sciences, priority 2004, dated 2012).
Entries after “also recorded” stand apart in the source; their conditions may differ.

Test system: K^+ currents (voltage dependent potassium channels) in DRG neurons
Format: cell-based, Wistar rats

Substance: FHGGSWYRFPWGY-NH2 [Mo1659]
- Effect on sustained (non-inactivating) K^+ current component: predominantly affects the sustained K^+ current component; also recorded: specifically acts on the non-inactivating K^+ currents
